“And” between values parts separate entries of the source, which are not always exact repeats. Identical values can stand only once. Like-named read-outs stand apart in the source and are kept apart here. Marks after values point to notes of the source that are not given here.
Experiments:
[1] = target: T1, EphrinB2-EphB1 (Homo sapiens, UniProt P54762); experiment: Octet 80 sec association/500 sec dissociation, immobilized human EphrinB2-Fc binding to soluble human EphB1-His; conditions: for EphB1 Inhibition Percent, Inhibition of Association ONLY: at 3.2 μM and 80 seconds; for EphB1 Inhibition Percent, Inhibition of Association ONLY / EphB1 Inhibition Percent, Inhibition of Association-Dissociation: immobilized human EphrinB2, 25 nM soluble human EphB1; for EphB1 Inhibition Percent, Inhibition of Association-Dissociation: at 3.2 μM and 580 seconds
T1 construct: soluble human EphB1-His, EphB2-His, and EphB4-His ectodomains; commercially available human EphrinB1-Fc (EB1), EphrinB2-Fc (EB2), and EphrinB3-Fc (EB3) ectodomain proteins; purchased
T1 sequence (P54762 18-540 limits assumed): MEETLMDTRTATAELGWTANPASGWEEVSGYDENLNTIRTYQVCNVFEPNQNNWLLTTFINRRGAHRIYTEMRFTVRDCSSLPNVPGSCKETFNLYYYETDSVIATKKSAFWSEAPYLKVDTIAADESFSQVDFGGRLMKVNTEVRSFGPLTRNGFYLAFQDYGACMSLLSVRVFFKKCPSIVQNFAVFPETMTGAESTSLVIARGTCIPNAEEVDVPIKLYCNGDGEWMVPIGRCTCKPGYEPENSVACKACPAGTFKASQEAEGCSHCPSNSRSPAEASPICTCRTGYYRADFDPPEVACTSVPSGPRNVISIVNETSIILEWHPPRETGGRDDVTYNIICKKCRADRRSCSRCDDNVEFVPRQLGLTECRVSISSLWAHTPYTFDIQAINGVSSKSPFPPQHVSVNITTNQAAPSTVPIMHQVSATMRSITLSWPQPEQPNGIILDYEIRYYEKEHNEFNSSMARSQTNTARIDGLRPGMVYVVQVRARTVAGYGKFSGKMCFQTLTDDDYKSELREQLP
In short: (§1)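 EphrinB2-Fc captured on AHC biosensors, then soluble His-tagged EphB ectodomain (25 nM for % inhibition runs) associated 80 s and dissociated 500 s in PBS, 0.05% Tween-20, 1% DMSO ± compound. Compounds tested at 0.1–3.2 μM with a 10 μM max standard; IC50 from AUC of full traces or at 75 s and 135 s.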

[2] = target: T2, EphrinB2-EphB2 (Homo sapiens, UniProt P29323); experiment: Octet tetramerization inhibition, immobilized human EphrinB2 binding to 50 nM soluble human EphB2
T2 construct: soluble human EphB1-His, EphB2-His, and EphB4-His ectodomains; commercially available human EphrinB1-Fc (EB1), EphrinB2-Fc (EB2), and EphrinB3-Fc (EB3) ectodomain proteins; purchased
T2 sequence (P29323 19-543 limits assumed): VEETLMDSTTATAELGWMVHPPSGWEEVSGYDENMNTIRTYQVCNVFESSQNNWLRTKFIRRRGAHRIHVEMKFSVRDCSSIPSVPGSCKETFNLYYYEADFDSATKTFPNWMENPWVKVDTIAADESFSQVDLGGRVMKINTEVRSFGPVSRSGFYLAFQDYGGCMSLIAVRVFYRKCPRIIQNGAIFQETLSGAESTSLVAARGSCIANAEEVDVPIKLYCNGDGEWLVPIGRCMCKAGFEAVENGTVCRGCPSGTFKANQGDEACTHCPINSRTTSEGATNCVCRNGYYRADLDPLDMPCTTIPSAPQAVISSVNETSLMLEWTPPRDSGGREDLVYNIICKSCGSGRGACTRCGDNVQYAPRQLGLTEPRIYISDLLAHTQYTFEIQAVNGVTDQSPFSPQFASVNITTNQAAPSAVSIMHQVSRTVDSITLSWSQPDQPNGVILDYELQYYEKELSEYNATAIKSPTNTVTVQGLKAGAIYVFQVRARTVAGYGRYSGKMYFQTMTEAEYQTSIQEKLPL

[3] = target: T2, EphrinB2-EphB2; experiment: Octet 80 sec association/500 sec dissociation, immobilized human EphrinB2-Fc binding to soluble human EphB2-His; conditions: for EphB2 Inhibition Percent, Inhibition of Association ONLY: at 3.2 μM and 80 seconds; for EphB2 Inhibition Percent, Inhibition of Association ONLY / EphB2 Inhibition Percent, Inhibition of Association-Dissociation: immobilized human EphrinB2, 25 nM soluble human EphB2; for EphB2 Inhibition Percent, Inhibition of Association-Dissociation: at 3.2 μM and 580 seconds
In short: as §1

[4] = EphB1, 25 nM EphB1, 3.2 μM compound, A20-I as max control, 0* = less than 0, no inhibition, read-out: % Inhibition: Association + Dissociation (160 sec)
[5] = EphB1, 25 nM EphB1, 3.2 μM compound, A20-I as max control, 0* = less than 0, no inhibition, read-out: % Inhibition: Association ONLY (80 sec)
[6] = Absolute AUC/IC50, Table A, EphrinB2-EphB2
[7] = Absolute Association IC50 (300 sec), Table A, EphrinB2-EphB2
[8] = Absolute Dissociation IC50 (450 sec), Table A, EphrinB2-EphB2
[9] = Relative AUC/IC50, Table A, EphrinB2-EphB2, compound 7: association only
[10] = Relative Association IC50 (300 sec), Table A, EphrinB2-EphB2
[11] = Relative Dissociation IC50 (450 sec), Table A, EphrinB2-EphB2
[12] = tetramerization inhibitor IC50 (relative), association step, surmountable tetramer
[13] = EphB2, 25 nM EphB2, 3.2 μM compound, A20-I as max control, 0* = less than 0, no inhibition, read-out: % Inhibition: Association + Dissociation (160 sec)
[14] = EphB2, 25 nM EphB2, 3.2 μM compound, A20-I as max control, 0* = less than 0, no inhibition, read-out: % Inhibition: Association ONLY (80 sec)
[15] = EphB2, 25 nM EphB2, 3.2 μM compound, A20-I as max control, 0* = less than 0, no inhibition, listed as A19-NO2 (B)

Row | Compound | inhibition at 3.2 µM [1, 4] | inhibition at 3.2 µM [1, 5] | IC50 [2, 6] | IC50 [2, 7] | IC50 [2, 8] | IC50 [2, 9] | IC50 [2, 10] | IC50 [2, 11] | IC50 [2, 12] | inhibition at 3.2 µM [3, 13] | inhibition at 3.2 µM [3, 14] | EphB1 Inhibition Percent, Inhibition of Association ONLY [1] | EphB1 Inhibition Percent, Inhibition of Association-Dissociation [1] | EphB2 Inhibition Percent, Inhibition of Association ONLY [3] | EphB2 Inhibition Percent, Inhibition of Association-Dissociation [3] | other results
1 | COc1ccccc1N1CCN(Cc2cc(Br)c(O)c3ncccc23)CC1 [Compound 70, 7-bromo-5-((4-(2-methoxyphenyl)piperazin-1-yl)methyl)quinolin-8-ol] | 58.8% | 47.2% | > 1600 nM | 1200 nM | 360 nM | 170 nM | 180 nM | 190 nM | ~200 nM | 73% | 53.4% |  |  |  |  | 
2 | Oc1ccc(CN2CCN(c3ccc(F)cc3F)CC2)c2cccnc12 [Compound 62, 5-((4-(2,4-difluorophenyl)piperazin-1-yl)methyl)quinolin-8-ol] |  |  | > 1600 nM | > 1600 nM | > 1600 nM | > 1600 nM | > 1600 nM | > 1600 nM |  |  |  | 17.9% | 14.7% | 0*% | 0*% | 
3 | O=[N+]([O-])c1cc(CN2CCOCC2)c2cccnc2c1O [Compound 10, 4-((8-hydroxy-7-nitroquinolin-1-ium-5-yl)methyl)morpholin-4-ium chloride] |  |  | > 1600 nM | > 1600 nM | > 1600 nM | > 1600 nM | > 1600 nM | > 1600 nM |  |  |  |  | 23.1% and 14.2% and 20.2% | 9.2% and 11.6% and 16.5% | 24.5% and 24.2% and 21.0% | % Inhibition: Association + Dissociation (160 sec) ([1]; EphB1, 25 nM EphB1, 3.2 μM compound, A20-I as max control, 0* = less than 0, no inhibition, listed as A19-NO2 (B)): 14.2%; % Inhibition: Association + Dissociation (160 sec) [3, 15]: 24.2%; % Inhibition: Association ONLY (80 sec) [3, 15]: 11.6%
4 | Oc1c(Br)cc(CN2CCOCC2)c2cccnc12 [Compound 5, 7-bromo-5-(morpholinomethyl)quinolin-8-ol] | 45.2% | 25.1% |  |  |  |  |  |  | ~500 nM | 75.7% | 55.4% |  |  |  |  | IC50 ([2]; absolute IC50, association, dissociation and AUC, A20 salt): ~1000 nM and 1000 nM; IC50 ([2]; effective/relative IC50, A20 salt): < 1000 nM; association slope ([2]; in presence of A20, role: inhibitor, 20° without): 10 °; IC (maximum) ([2]; read-out: concentration producing maximum inhibition): 1 µM; inhibition at 1 µM ([2]; read-out: reduction of association response): ~50%
5 | COc1ccc2[nH]cc(C(=O)N3CCN(c4ccccc4OC)CC3)c2c1 [Compound 64, (5-methoxy-1H-indol-3-yl)(4-(2-methoxyphenyl)piperazin-1-yl)methanone] | 0% | 0% | > 1600 nM | > 1600 nM | > 1600 nM | > 1600 nM | > 1600 nM | > 1600 nM |  | 0% | 0% |  |  |  |  | 
6 | O=C(Cc1ccccc1)Nc1ccc(N2CCN(Cc3ccc(O)c4ncccc34)CC2)cc1 [Compound 51, N-(4-(4-((8-hydroxyquinolin-5-yl)methyl)piperazin-1-yl)phenyl)-2-phenylacetamide] | 61.2% | 52.7% | 1510 nM | 1450 nM | 1290 nM | 1020 nM | 980 nM | 930 nM | ~1200 nM | 78.8% | 64.8% |  |  |  |  | disruption of unsurmountable tetramer ([2]; 0.8-3.2 μM): able to inhibit a small amount of the EphrinB2-EphB2 unsurmountable tetramer
7 | Oc1c(Br)cc(CN2CCOCC2)c2cccnc12 [Compound 6, 4-((7-bromo-8-hydroxyquinolin-1-ium-5-yl)methyl)morpholin-4-ium chloride] |  |  |  | 930 nM | 690 nM | 480 nM | 490 nM | 530 nM |  |  |  | 33.5% | 48.7% | 61.0% | 76.8% | 
8 | Oc1c(Br)cc(CN2CCN(c3ccc(Br)cc3)CC2)c2cccnc12 [Compound 30, 7-bromo-5-((4-(4-bromophenyl)piperazin-1-ium-1-yl)methyl)-8-hydroxyquinolin-1-ium chloride] |  |  | 260 nM | 600 nM |  | 290 nM and 260 nM |  | 340 nM |  |  |  | 24.7% and 39.1% | 38.6% and 53.1% | 57.7% and 62.5% | 72.9% and 78.7% | 
9 | OCc1ccc2c(CN3CCOCC3)cc(Br)c(O)c2n1 [Compound 13, 7-bromo-2-(hydroxymethyl)-5-(morpholinomethyl)quinolin-8-ol] | 29.1% | 12.4% | > 3200 nM | > 3200 nM | 2510 nM | 1450 nM | 1410 nM | 1540 nM | ~1600 nM | 68.4% | 50.5% |  |  |  |  | 
10 | Oc1c(I)cc(CN2CCOCC2)c2cccnc12 [Compound 8, 4-((8-hydroxy-7-iodoquinolin-1-ium-5-yl)methyl)morpholin-4-ium chloride] |  |  | 1320 nM and 1000 nM and 1480 nM | 1380 nM and 1350 nM and > 3200 nM | 980 nM and 1260 nM and 850 nM | 630 nM | 630 nM and 850 nM | 660 nM and 930 nM |  |  |  |  | 53.2% |  | 73.6% | 
11 | O=S1(=O)CCN(Cc2ccc(O)c3ncccc23)CC1 [Compound 15, 4-((8-hydroxyquinolin-1-ium-5-yl)methyl)thiomorpholin-4-ium 1,1-dioxide chloride] |  |  | > 1600 nM | > 1600 nM | > 1600 nM | 620 nM | > 1600 nM | 1150 nM |  |  |  | 16.8% | 28.6% | 33.8% | 46.4% | 
12 | Oc1ccc(CN2CCN(c3ccc(Br)cn3)CC2)c2cccnc12 [Compound 33, 5-((4-(5-bromopyridin-2-yl)piperazin-1-yl)methyl)quinolin-8-ol] | 58.6% | 46.4% | 2510 nM | > 3200 nM |  | 2190 nM | 1820 nM | 2240 nM |  | 81.6% | 69.4% |  |  |  |  | 

Source: patent publication US20260374739A1, “SMALL MOLECULAR WEIGHT CHEMICAL COMPOUND TO ANTAGONIZE EPH-EPHRIN TETRAMERIZATION AND INHIBIT BIDIRECTIONAL SIGNALING” (THE BOARD OF REGENTS OF THE UNIVERSITY OF TEXAS SYSTEM, priority 2022, published 2026)
